Results from patent US20250082773A1, “COMBINATION THERAPY USING EXOSOME SECRETION INHIBITOR AND IMMUNE CHECKPOINT INHIBITOR” (Research & Business Foundation SUNGKYUNKWAN UNIVERSITY, priority 2021, published 2025).

Columns and labels:
CT26 tumor = experiment: Tumor growth inhibition test in CT26 tumor-bearing mice; type: in vivo; details: αPD-1 5 mg/kg i.p. every 3 days x3
Protocol: CT26 cells (2×10^6) were suspended in cold PBS and subcutaneously injected to establish CT26 tumor-bearing mice.
The tumor volume was measured using calipers and calculated for each mouse using the following equation: V=½ab^2 (a is the longest axis and b is the shortest axis). After the treatment schedule, the tumors were excised and weighed.
The tumor volume was measured every day by measuring long-axis and short-axis of the tumor using calipers.

CT26 cells = experiment: Ability of PDC to inhibit exosome secretion in CT26 cells (NTA); type: cell-based, murine; set-up: dose or concentration left out as unconfirmed; details: FIG. 14
Protocol: To evaluate the ability of PEG-b-Poly(L-lysine-CDM-SFX) to inhibit the secretion of exosomes, CT26 cells, a murine colon cancer cell line, were treated with 100 µM of SFX and the same amount of PDC, exosomes from the supernatant were separated, and secreted exosomes were quantitatively analyzed.
In addition, to evaluate the ability of PEG-SS-AMB to inhibit the secretion of exosomes, CT26 cells, a murine colon cancer cell line, were treated with […] of PEG-SS-AMB, exosomes from the supernatant were separated, and secreted exosomes were quantitatively analyzed.

exosomal PD-L1 = experiment: Exosomal PD-L1 in plasma of CT26 tumor-bearing mice (ELISA); type: in vivo; details: SFX 200 mg/kg, αPD-1 5 mg/kg, FIG. 4C
Protocol: To assess PD-L1 on EXOs isolated from mouse plasma, ELISA plates were coated with a monoclonal antibody against PD-L1 (R&D Systems, Minneapolis, MN, USA) overnight at 25° C. Free binding sites were blocked with blocking buffer for 2 h at 25° C. After washing the plates with 0.05% Tween-20 in PBS, EXOs were added to each well and incubated for 2 h at 25° C. […] The plate was incubated for 20 min with a substrate solution composed of H2O2 and tetramethylbenzidine. After the addition of a stop solution containing 2N H2SO4 (R&D Systems, DY994), the plate was immediately read at 450 nm using an xMark™ microplate reader (Bio-Rad).

`COc1ccccc1Oc1c(NS(=O)(=O)c2ccc(C(C)(C)C)cc2)nc(-c2ncccn2)nc1OCCO` [BST, bosentan] was tested, and the “tumor growth (tumor volume)” value (CT26 tumor; BST 10 mg/kg orally daily, FIG. 16B) was “effectively retarded”.
In the case of `CCCNS(=O)(=O)Nc1ncnc(OCCOc2ncc(Br)cn2)c1-c1ccc(Br)cc1` [MCT, macitentan], the “tumor growth (tumor volume)” value (CT26 tumor; MCT 50 mg/kg orally daily, FIG. 17B) is reported as “effectively retarded”.
`Cc1noc(NS(=O)(=O)c2ccc(N)cc2)c1C` [SFX, sulfisoxazole] was tested, and the “inhibition of exosome secretion compared to the untreated control group” value (CT26 cells) was “more than 50%” and the “exosomal PD-L1 levels in the plasma” value (exosomal PD-L1) was “significantly decreased”.
